ChEMBL document CHEMBL4477215, “Specific Correction of Alternative Survival Motor Neuron 2 Splicing by Small Molecules: Discovery of a Potential Novel Medicine To Treat Spinal Muscular Atrophy” (J Med Chem, 2016)

Assays:
[1] = Volume of distribution at steady state in rat at 2 mg/kg, iv; assay type: ADME, organism-based; conditions: in vivo, read-out: Vdss
Mus musculus [2] = test: Inhibition of mRNA splicing of SMN2 exon 7 in C/C-allele mouse harboring FVB.129(B6) Smn1tm5(Smn1/SMN2)Mrph/J assessed as increase in SMN protein level in quadriceps administered orally qd for 10 days measured 1 hr after 10th dose by HTRF assay; assay type: functional, organism-based
Mus musculus [3] = test: Inhibition of mRNA splicing of SMN2 exon 7 in C/C-allele mouse harboring FVB.129(B6) Smn1tm5(Smn1/SMN2)Mrph/J assessed as increase in SMN protein level in quadriceps at 1 mg/kg, po qd for 10 days measured 1 hr after 10th dose by HTRF assay relative to control; assay type: functional; parameters: scale not given: the % may be the effect or the level left
Mus musculus [4] = test: (§1) Inhibition of mRNA splicing of SMN2 exon 7 in neonatal delta7 mouse harboring FVB.Cg-Tg(SMN2 delta7)4299Ahmb Tg(SMN2)-89Ahmb Smn1tm1Msd/J assessed as increase in SMN protein level in quadriceps administered ip qd dosed from postnatal day 3 to postnatal day 9 measured 1 hr after last dose by HTRF assay; assay type: functional, organism-based
Mus musculus [5] = test: as §1, with “brain at 1 mg/kg,” for “quadriceps administered”, “administered” for “dosed”, “assay relative to control” for “assay”; assay type: functional; parameters: scale not given: the % may be the effect or the level left
[6] = Clearance in rat at 2 mg/kg, iv; assay type: ADME, organism-based; conditions: in vivo
Mus musculus [7] = test: (§2) Inhibition of mRNA splicing of SMN2 exon 7 in neonatal delta7 mouse harboring FVB.Cg-Tg(SMN2 delta7)4299Ahmb Tg(SMN2)-89Ahmb Smn1tm1Msd/J assessed as increase in SMN protein level in brain administered ip qd dosed from postnatal day 3 to postnatal day 9 measured 1 hr after last dose by HTRF assay; assay type: functional, organism-based
Mus musculus [8] = test: Inhibition of mRNA splicing of SMN2 exon 7 in C/C-allele mouse harboring FVB.129(B6) Smn1tm5(Smn1/SMN2)Mrph/J assessed as increase in SMN protein level in brain at 10 mg/kg, po qd for 10 days measured 1 hr after 10th dose by HTRF assay relative to control; assay type: functional; parameters: scale not given: the % may be the effect or the level left
[9] = Fraction unbound in rat plasma; assay type: ADME, cell-free
[10] = Clearance in Cynomolgus monkey at 0.3 mg/kg, iv; assay type: ADME, organism-based, Macaca fascicularis; conditions: in vivo
[11] = Half life in rat at 10 mg/kg, po; assay type: ADME, organism-based; conditions: in vivo
[12] = Mutagenicity in Salmonella typhimurium TA100 assessed as increase in revertant colonies after 2 days in presence of rat liver S9 fraction by Ames test relative to control; assay type: toxicity; conditions: salmonella enterica subsp. enterica serovar typhimurium, s9, 48 h
Mus musculus [13] = test: Inhibition of mRNA splicing of SMN2 exon 7 in C/C-allele mouse harboring FVB.129(B6) Smn1tm5(Smn1/SMN2)Mrph/J assessed as increase in SMN protein level in brain administered orally po qd for 10 days measured 1 hr after 10th dose by HTRF assay; assay type: functional, organism-based
[14] = Fraction unbound in Cynomolgus monkey plasma; assay type: ADME, cell-free, Macaca fascicularis
Homo sapiens [15] = organism: Homo sapiens; test: Inhibition of mRNA splicing of SMN2 exon 7 in GM03813 fibroblasts derived from human SMA type 1 patient after 24 hrs by RT-qPCR analysis
[16] = Mutagenicity in Salmonella typhimurium TA98 assessed as increase in revertant colonies after 2 days in presence of rat liver S9 fraction by Ames test relative to control; assay type: toxicity; conditions: salmonella enterica subsp. enterica serovar typhimurium, s9, 48 h
[17] = Unbound AUC in plasma of C/C-allele mouse harboring FVB.129(B6)-Smn1tm5(Smn1/SMN2)Mrph/J at 10 mg/kg, po; assay type: ADME, organism-based; conditions: in vivo
Mus musculus [18] = test: Inhibition of mRNA splicing of SMN2 exon 7 in C/C-allele mouse harboring FVB.129(B6) Smn1tm5(Smn1/SMN2)Mrph/J assessed as increase in SMN protein level in brain at 1 mg/kg, po qd for 10 days measured 1 hr after 10th dose by HTRF assay relative to control; assay type: functional; parameters: scale not given: the % may be the effect or the level left
[19] = Octanol-aqueous phosphate buffer distribution coefficient, log D of the compound at pH 7.4 at 100 mM after 24 hrs by LC-MS based shake flask method; assay type: physicochemical
[20] = Mutagenicity in Salmonella typhimurium TA1535 assessed as increase in revertant colonies after 2 days in presence of rat liver S9 fraction by Ames test relative to control; assay type: toxicity; conditions: salmonella enterica subsp. enterica serovar typhimurium, s9, 48 h
[21] = Fraction unbound in mouse plasma; assay type: ADME, cell-free
Homo sapiens [22] = organism: Homo sapiens; test: Inhibition of mRNA splicing of SMN2 exon 7 in fibroblasts derived from human SMA type 1/2/3 patient assessed as increase in SMN protein level after 48 hrs by HTRF assay
[23] = Oral bioavailability in Cynomolgus monkey at 1 mg/kg; assay type: ADME, organism-based, Macaca fascicularis; conditions: in vivo
[24] = Mutagenicity in Salmonella typhimurium TA102 assessed as increase in revertant colonies after 2 days in presence of rat liver S9 fraction by Ames test relative to control; assay type: toxicity; conditions: salmonella enterica subsp. enterica serovar typhimurium, s9, 48 h
Mus musculus [25] = test: Inhibition of mRNA splicing of SMN2 exon 7 in C/C-allele mouse harboring FVB.129(B6) Smn1tm5(Smn1/SMN2)Mrph/J assessed as increase in SMN protein level in brain at 3 mg/kg, po qd for 10 days measured 1 hr after 10th dose by HTRF assay relative to control; assay type: functional; parameters: scale not given: the % may be the effect or the level left
[26] = AUC in plasma of C/C-allele mouse harboring FVB.129(B6)-Smn1tm5(Smn1/SMN2)Mrph/J at 10 mg/kg, po; assay type: ADME, organism-based
[27] = Volume of distribution at steady state in Cynomolgus monkey at 0.3 mg/kg, iv; assay type: ADME, organism-based, Macaca fascicularis; conditions: in vivo, read-out: Vdss
Mus musculus [28] = test: as §2, with “at 0.3 mg/kg,” for “administered”, “administered” for “dosed”, “assay relative to control” for “assay”; assay type: functional; parameters: scale not given: the % may be the effect or the level left
P-gp (ABCB1) = P-gp (ABCB1) (Homo sapiens, UniProt P08183); test: Substrate activity at human P-gp assessed as efflux ratio by cell based assay; conditions: not told
[29] = Fraction unbound in human plasma; assay type: ADME, cell-free
[30] = Half life in Cynomolgus monkey at 1 mg/kg, po; assay type: ADME, organism-based, Macaca fascicularis; conditions: in vivo
Mus musculus [31] = test: as §1, with “at 0.3 mg/kg,” for “administered”, “administered” for “dosed”, “assay relative to control” for “assay”; assay type: functional; parameters: scale not given: the % may be the effect or the level left
Mus musculus [32] = test: Inhibition of mRNA splicing of SMN2 exon 7 in C/C-allele mouse harboring FVB.129(B6) Smn1tm5(Smn1/SMN2)Mrph/J assessed as increase in SMN protein level in quadriceps at 10 mg/kg, po qd for 10 days measured 1 hr after 10th dose by HTRF assay relative to control; assay type: functional; parameters: scale not given: the % may be the effect or the level left
[33] = Oral bioavailability in rat at 10 mg/kg; assay type: ADME, organism-based; conditions: in vivo
Mus musculus [34] = test: as §1, with “at 1 mg/kg,” for “administered”, “administered” for “dosed”, “assay relative to control” for “assay”; assay type: functional; parameters: scale not given: the % may be the effect or the level left
[35] = Mutagenicity in Salmonella typhimurium TA97 assessed as increase in revertant colonies after 2 days in presence of rat liver S9 fraction by Ames test relative to control; assay type: toxicity; conditions: salmonella enterica subsp. enterica serovar typhimurium, s9, 48 h

P-gp (ABCB1), sequence (P08183 whole entry): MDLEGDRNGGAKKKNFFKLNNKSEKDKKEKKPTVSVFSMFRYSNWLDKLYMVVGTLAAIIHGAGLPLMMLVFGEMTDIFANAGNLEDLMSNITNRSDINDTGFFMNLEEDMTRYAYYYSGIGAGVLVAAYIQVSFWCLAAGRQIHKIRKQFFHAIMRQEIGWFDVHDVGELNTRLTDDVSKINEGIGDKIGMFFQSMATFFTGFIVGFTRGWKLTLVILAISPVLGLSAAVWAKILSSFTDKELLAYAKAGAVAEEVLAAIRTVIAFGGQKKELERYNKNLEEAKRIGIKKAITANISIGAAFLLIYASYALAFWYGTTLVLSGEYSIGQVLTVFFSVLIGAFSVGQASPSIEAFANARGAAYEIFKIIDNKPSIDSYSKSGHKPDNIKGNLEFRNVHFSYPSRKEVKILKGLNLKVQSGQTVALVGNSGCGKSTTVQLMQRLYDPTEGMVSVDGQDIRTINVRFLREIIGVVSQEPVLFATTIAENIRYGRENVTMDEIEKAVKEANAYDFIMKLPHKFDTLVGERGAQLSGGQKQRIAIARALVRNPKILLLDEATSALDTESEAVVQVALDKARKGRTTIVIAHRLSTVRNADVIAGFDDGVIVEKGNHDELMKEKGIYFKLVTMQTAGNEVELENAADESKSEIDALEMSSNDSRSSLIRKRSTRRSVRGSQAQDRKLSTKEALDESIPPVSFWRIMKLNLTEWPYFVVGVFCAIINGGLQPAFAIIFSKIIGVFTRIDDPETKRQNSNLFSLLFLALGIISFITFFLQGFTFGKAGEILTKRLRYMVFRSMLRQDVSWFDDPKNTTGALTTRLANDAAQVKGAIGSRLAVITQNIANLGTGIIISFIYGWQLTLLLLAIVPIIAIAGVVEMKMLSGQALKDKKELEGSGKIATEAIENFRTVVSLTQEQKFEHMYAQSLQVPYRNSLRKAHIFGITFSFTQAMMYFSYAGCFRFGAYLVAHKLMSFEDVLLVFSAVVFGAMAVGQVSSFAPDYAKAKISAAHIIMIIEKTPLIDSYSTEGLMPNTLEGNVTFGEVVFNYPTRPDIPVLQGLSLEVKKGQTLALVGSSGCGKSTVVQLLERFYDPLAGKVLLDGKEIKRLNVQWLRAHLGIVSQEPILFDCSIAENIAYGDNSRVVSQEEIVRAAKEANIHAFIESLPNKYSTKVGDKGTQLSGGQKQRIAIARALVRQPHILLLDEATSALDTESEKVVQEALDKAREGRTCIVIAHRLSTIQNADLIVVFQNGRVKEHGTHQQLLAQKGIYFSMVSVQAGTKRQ

SMILES	Vd [1]	inhibition (Mus musculus [2])	Activity (Mus musculus [3])	inhibition (Mus musculus [4])	Activity (Mus musculus [5])	clearance [6]	inhibition (Mus musculus [7])	Activity (Mus musculus [8])	fraction unbound [9]	clearance [10]	half-life [11]	Activity [12]	inhibition (Mus musculus [13])	fraction unbound [14]	EC1.5 (Homo sapiens [15])	Activity [16]	fAUC [17]	Activity (Mus musculus [18])	logD at 24 h [19]	Activity [20]	further results
Cc1cn2cc(-c3cc(=O)n4cc(N5CCN(C)CC5)ccc4n3)cc(F)c2n1	5 L/kg	Dose-dependent effect	40%	Dose-dependent effect	159%	61 mL/min/kg	Dose-dependent effect	141%	0.16	9.7 mL/min/kg	4 h	Non-Toxic	Dose-dependent effect	0.18	32 nM	Non-Toxic	450 ng·h/mL	42%	2.3	Non-Toxic	fraction unbound [21]: 0.17; EC1.5 (Homo sapiens [22]): 40 nM; bioavailability [23]: 84%; Activity [24]: Non-Toxic; Activity (Mus musculus [25]): 60%; AUC [26]: 2700 ng·h/mL; Vd [27]: 2.4 L/kg; Activity (Mus musculus [28]): 116%; efflux ratio (P-gp (ABCB1)): 1.9; fraction unbound [29]: 0.22; half-life [30]: 2.9 h; Activity (Mus musculus [31]): 189%; Activity (Mus musculus [32]): 126%; bioavailability [33]: 100%; Activity (Mus musculus [34]): 260%; Activity [35]: Non-Toxic
Cc1cn2cc(-c3cc(=O)n4cc(N5CCN(C)CC5)ccc4n3)cc(C)c2n1	14 L/kg	Dose-dependent effect	28%	Dose-dependent effect	130%	38 mL/min/kg	Dose-dependent effect	39%	0.1	7.5 mL/min/kg	6 h	Non-Toxic	Dose-dependent effect	0.08	7 nM	Non-Toxic	400 ng·h/mL	0%	2.49	Non-Toxic	fraction unbound [21]: 0.16; EC1.5 (Homo sapiens [22]): 14 to 55 nM; bioavailability [23]: 100%; Activity [24]: Non-Toxic; Activity (Mus musculus [25]): 0%; AUC [26]: 2500 ng·h/mL; Vd [27]: 4.3 L/kg; Activity (Mus musculus [28]): 39%; efflux ratio (P-gp (ABCB1)): 2.4; fraction unbound [29]: 0.11; half-life [30]: 8 h; Activity (Mus musculus [31]): 31%; Activity (Mus musculus [32]): 133%; bioavailability [33]: 55 to 100%; Activity (Mus musculus [34]): 115%; Activity [35]: Non-Toxic
CCc1nc(C)cn2nc(-c3cc(=O)n4cc(C5CCN(C)CC5)cc(C)c4n3)cc12	20 L/kg	Dose-dependent effect	30%	Dose-dependent effect	55%	18 mL/min/kg	Dose-dependent effect	122%	0.17	5 mL/min/kg	12 h	Non-Toxic	Dose-dependent effect	0.16	23 nM	Non-Toxic	660 ng·h/mL	7%	2.26	Non-Toxic	fraction unbound [21]: 0.02; EC1.5 (Homo sapiens [22]): 87 nM; bioavailability [23]: 52%; Activity [24]: Non-Toxic; Activity (Mus musculus [25]): 19%; AUC [26]: 33000 ng·h/mL; Vd [27]: 20 L/kg; Activity (Mus musculus [28]): 20%; efflux ratio (P-gp (ABCB1)): 2; fraction unbound [29]: 0.13; half-life [30]: 40 to 60 h; Activity (Mus musculus [31]): 40%; Activity (Mus musculus [32]): 94%; bioavailability [33]: 83%; Activity (Mus musculus [34]): 57%; Activity [35]: Non-Toxic
